ChEMBL document CHEMBL1126399, “Synthesis and enzymatic properties of a deoxy analog of phosphatidylinositol” (Bioorg Med Chem Lett, 1992)

Experiment: Inhibition of phosphatidylinositol (PI) hydrolysis
Format: functional

## CCCCCCCCCCCCCCCC(=O)OC[C@H](COP(=O)(O)O[C@H]1C[C@@H](O)C(O)[C@@H](O)C1O)OC(=O)CCCCCCCCCCCCCCC (stereo partly specified)
  IC50: 2000 µM
